# Patent publication US20140173780A1, “SOYBEAN TRAN[…] EFFICIENT AND HIGH-[…] PRODUCTION” (DOW AGROSCIENCES LLC, priority 2012, published 2014)
# System: un-transformed soybean explants
# Assay: Glyphosate dose response study on un-transformed soybean explants in tissue culture media
# Type: in vivo, soybean (Glycine max)
# Settings: for Number of Explants at Various Stages of Selection: SE-1 / Number of Explants at Various Stages of Selection: SE-2 / Number of Explants at Various Stages of Selection: SI-2 / Number of Explants at Various Stages of Selection: End of SE-2: 49 explants at CC; for Number of Explants at Various Stages of Selection: End of SE-2: six weeks on selection
# Procedure: Initially, a dose response study was completed. To test the effect of glyphosate on the explants, glyphosate was added to media used from the shoot initiation stage and onwards. Glyphosate was tested from the range of 0.025-0.2 mM. Incorporation of glyphosate in tissue culture media within this concentration range has been reported in soybean (Clemente et al., 2000; Hinchee et al., 1996; Martinell et al., 2006; Martinell et al., 1999; Martinell et al., 2002), tobacco (Singer et al., 1985), cotton (Zhao et al., 2006) and wheat (Hu et al., 2003). Five concentrations of glyphosate were tested for culturing of un-transformed soybean explants. The concentrations incorporated into the SI-2 media were 0.025 mM, 0.05 mM, 0.075 mM, 0.1 mM and 0.2 mM. The un-transformed soybean explants were maintained on the same rate of glyphosate selection for all the successive stages of subculture from SI-2 media to the completion of the tissue culturing protocol. The numbers of healthy explants were counted at each subculture stage. Dead explants were discarded and healthy explants were subcultured further onto appropriate media.
# Growth of the explants was also retarded on glyphosate containing media. Next the cotyledons were removed and the explants were subcultured from SI-2 to SE media. At the end of another two weeks of selection on SE media, significant differences in the growth of the explants were observed when the explants were exposed to different levels of glyphosate. The retarded growth of the explants was proportionate to the increasing dose of glyphosate. Similarly the number of dead explants was also proportional to the increasing dose of glyphosate. The number of dead explants increased as the dose of glyphosate was increased. […] Subsequently, three different concentrations of glyphosate (e.g., 0.025 mM, 0.05 mM and 0.1 mM) were incorporated into the selection schemes for Agrobacterium-mediated transformation of the soybean split-seed explants comprising a portion of an embryonic axis.
# [1] = 0.025 mM glyphosate in media from SI-2 onwards
# [2] = 0.05 mM glyphosate in media from SI-2 onwards
# [3] = 0.075 mM glyphosate in media from SI-2 onwards
# [4] = 0.1 mM glyphosate in media from SI-2 onwards
# [5] = 0.2 mM glyphosate in media from SI-2 onwards
structure (smiles),measurement,setting,value
"O=C(O)CNCP(=O)(O)O [Glyphosate, glyphosate]",Number of Explants at Various Stages of Selection: SE-1,[1],41
same,Number of Explants at Various Stages of Selection: SE-2,[1],38
same,Number of Explants at Various Stages of Selection: SI-2,[1],43
same,Number of Explants at Various Stages of Selection: End of SE-2,[1],none of the soybean explants were able to survive
same,Number of Explants at Various Stages of Selection: SE-1,[2],45
same,Number of Explants at Various Stages of Selection: SE-2,[2],38
same,Number of Explants at Various Stages of Selection: SI-2,[2],45
same,Number of Explants at Various Stages of Selection: End of SE-2,[2],0
same,Number of Explants at Various Stages of Selection: SE-1,[3],45
same,Number of Explants at Various Stages of Selection: SE-2,[3],21
same,Number of Explants at Various Stages of Selection: SI-2,[3],47
same,Number of Explants at Various Stages of Selection: End of SE-2,[3],0
same,Number of Explants at Various Stages of Selection: SE-1,[4],41
same,Number of Explants at Various Stages of Selection: SE-2,[4],13
same,Number of Explants at Various Stages of Selection: SI-2,[4],44
same,Number of Explants at Various Stages of Selection: End of SE-2,[4],0
same,Number of Explants at Various Stages of Selection: SE-1,[5],31
same,Number of Explants at Various Stages of Selection: SE-2,[5],1
same,Number of Explants at Various Stages of Selection: SI-2,[5],42
same,Number of Explants at Various Stages of Selection: SE-2,"0.2 mM glyphosate in media from SI-2 onwards, listed as glyphosate",only one explants survived
same,Number of Explants at Various Stages of Selection: End of SE-2,[5],0
same,yellowing of the cotyledons,"end of culturing on SI-2 media (about 2 weeks), 0.025-0.2 mM glyphosate, extent proportional to dose",explants showed yellowing of the cotyledons
same,growth of the explants,"glyphosate containing media, 0.025-0.2 mM, proportionate to dose",retarded
